Experimental data taken from ChEMBL document CHEMBL1159195, “Purine and nucleoside metabolites from the Antarctic sponge Isodictya erinacea” (1998).
In brackets after ≈: the same amount, converted by molar mass. Activity calls are given as the source filed them. No cut-off for these calls is given here.

Columns and labels:
Perknaster fuscus = experiment: Deterrent activity against Perknaster fuscus assessed as induction of sustained retractions of tube-feet by sea-star deterrent assay; type: functional, organism-based
[1] = test system: Staphylococcus epidermidis; experiment: Antimicrobial activity against Staphylococcus epidermidis at 120 ug/disk after 48 hrs by paper disk method; type: functional, organism-based
Escherichia coli = experiment: Antimicrobial activity against […] coli at 120 ug/disk after 48 hrs by paper disk method; type: functional, organism-based
Staphylococcus aureus = experiment: Antimicrobial activity against Staphylococcus aureus at 120 ug/disk after 48 hrs by paper disk method; type: functional, organism-based
L5178Y = experiment: Cytotoxicity against mouse L5178Y cells by trypan blue exclusion method; type: functional; settings: read-out: LD50 (the source's name)

Q: Which Activity (Perknaster fuscus) does the source give for `Nc1ccn([C@H]2C[C@H](O)[C@@H](CO)O2)c(=O)n1` here?
A: The Activity was “inactive”.

Q: Which Activity [1] does the source give for `O=C(O)CCNc1ncnc2[nH]c(=O)[nH]c12` [ERINACEAN] here?
A: The Activity was “Active”.

Q: What about the Activity (Perknaster fuscus) of the same compound?
A: Its Activity is “inactive”.

Q: And the Activity (Escherichia coli)?
A: The Activity was “Active”.

Q: And the Activity (Staphylococcus aureus)?
A: The Activity was “Active”.

Q: What about the CC50 (L5178Y) of the same compound?
A: The CC50 was 50 µg/mL (≈ 224 µM).

Q: For `O=c1ccn([C@@H]2O[C@H](CO)[C@@H](O)[C@H]2O)c(=O)[nH]1`, which Activity (Perknaster fuscus) is on record?
A: The Activity was “inactive”.

Q: Which Activity (Perknaster fuscus) does the source give for `O=Cc1ccc(O)cc1` here?
A: Its Activity is “Active”.

Q: For `Cn1cnc2ncnc(N)c21`, which Activity (Perknaster fuscus) is on record?
A: The Activity was “inactive”.

Q: Which Activity (Perknaster fuscus) does the source give for `Cn1c(N)nc2c(ncn2C)c1=O` here?
A: The Activity was “inactive”.

Q: How did the Activity (Perknaster fuscus) turn out when `O=c1[nH]cnc2c1ncn2[C@@H]1O[C@H](CO)[C@@H](O)[C@H]1O` was run?
A: The Activity was “inactive”.
